Legend:
barnyardgrass [1] = experiment: Test C pre-/postemergence herbicide test; assay type: in vivo, Echinochloa crus-galli
Outline: (§1)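 Compound solutions contained surfactant in a non-phytotoxic solvent. These were sprayed onto pots of loam/sand sown with seeds, and onto young plants (2 to 18 cm, 1- to 4-leaf) in sphagnum peat–vermiculite mix. Visual injury scores (0 none, 100 complete control) were recorded after 13 to 15 days.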

rice = experiment: Test B flooded paddy test; assay type: in vivo, Oryza sativa; details: 500 g ai/ha, Flood; scale of 0 to 100 where 0 is no effect and 100 is complete control
Outline: (§2)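 2-leaf plants; flood 3 cm over soil; compound into paddy water; depth held. Greenhouse 13–15 d. Visual rating vs controls, 0 (no effect) to 100 (complete control); dash = not tested.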

pigweed = experiment: Test A pre-/postemergence herbicide test; assay type: in vivo, Amaranthus retroflexus
Outline: (§3)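 Formulated compound (non-phytotoxic solvent, surfactant) sprayed pre- onto soil of seeded loam/sand pots or post- onto seedlings at 1–2 leaves; ~10 d greenhouse; 0–100 visual control rating versus untreated.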

barnyardgrass [2] = experiment: Test A pre-/postemergence herbicide test; assay type: in vivo, Echinochloa crus-galli
Outline: as §3

soybean = experiment: Test C pre-/postemergence herbicide test; assay type: in vivo, Glycine max
Outline: as §1

ducksalad = experiment: Test B flooded paddy test; assay type: in vivo, Heteranthera limosa; details: 500 g ai/ha, Flood; scale of 0 to 100 where 0 is no effect and 100 is complete control
Outline: as §2

barnyardgrass [3] = experiment: Test B flooded paddy test; assay type: in vivo, Echinochloa crus-galli; details: 500 g ai/ha, Flood; scale of 0 to 100 where 0 is no effect and 100 is complete control
Outline: as §2

oilseed rape = experiment: Test C pre-/postemergence herbicide test; assay type: in vivo, Brassica napus
Outline: as §1

corn [4] = experiment: Test A pre-/postemergence herbicide test; assay type: in vivo, Zea mays; details: Postemergence
Outline: as §3

nutsedge, yellow = experiment: Test C pre-/postemergence herbicide test; assay type: in vivo, Cyperus esculentus
Outline: as §1

foxtail, giant = experiment: Test C pre-/postemergence herbicide test; assay type: in vivo, Setaria faberii
Outline: as §1

corn [5] = experiment: Test C pre-/postemergence herbicide test; assay type: in vivo, Zea mays
Outline: as §1

[6] = Postemergence, 31 g ai/ha, scale 0 to 100 (0 no effect, 100 complete control)
[7] = Postemergence, 62 g ai/ha, scale 0 (no effect) to 100 (complete control)
[8] = Postemergence, 125 g ai/ha, scale 0 to 100 (0 no effect, 100 complete control)
[9] = Postemergence, 250 g ai/ha, scale 0 to 100 (0 no effect, 100 complete control)
[10] = Preemergence, 31 g ai/ha, scale 0 to 100, 0 is no effect and 100 is complete control
[11] = Preemergence, 62 g ai/ha, scale 0 to 100 (0 no effect, 100 complete control)
[12] = Postemergence, 125 g ai/ha, visual rating on 0 to 100 scale (0 no effect, 100 complete control), approx. 10 days
[13] = Postemergence, 500 g ai/ha, 0 to 100 scale (0 no effect, 100 complete control)
[14] = Preemergence, 125 g ai/ha, 0 to 100 scale where 0 is no effect and 100 is complete control
[15] = Preemergence, 500 g ai/ha, visual rating on 0 to 100 scale (0 no effect, 100 complete control)
[16] = Preemergence, 125 g ai/ha, scale 0 to 100

SMILES: O=C1NCC(c2cccc(Br)c2)C1C(=O)Nc1cccc(F)c1F (stereo not drawn) [Compound 309]
- Plant response rating, Barnyardgrass (barnyardgrass [1]; [6]): 0
- Plant response rating, Barnyardgrass (barnyardgrass [1]; [7]): 15
- Plant response rating, Barnyardgrass (barnyardgrass [1]; [8]): 55
- Plant response rating, Barnyardgrass (barnyardgrass [1]; [9]): 60
- Barnyardgrass plant response rating (barnyardgrass [1]; [10]): 60
- Barnyardgrass plant response rating (barnyardgrass [1]; [11]): 90
- Plant response rating, Barnyardgrass (barnyardgrass [1]; Preemergence, 125 g ai/ha, scale 0 to 100 (0 no effect, 100 complete control)): 90
- Plant response rating (scale of 0 to 100; 0 is no effect, 100 is complete control), Barnyardgrass (barnyardgrass [1]; Preemergence, 250 g ai/ha): 95
- Plant response rating, Rice (rice): 0
- Plant response rating, Pigweed (pigweed; [12]): 0
- Plant response rating, Pigweed (pigweed; [13]): 0
- Plant response rating, Pigweed (pigweed; [14]): 0
- Pigweed plant response rating (pigweed; [15]): 0
- Plant response rating, Barnyardgrass (barnyardgrass [2]; [12]): 80
- Plant response rating, Barnyardgrass (barnyardgrass [2]; [13]): 90
- Plant response rating, Barnyardgrass (barnyardgrass [2]; [14]): 80
- Barnyardgrass plant response rating (barnyardgrass [2]; [15]): 80
- Plant response rating, Soybean (soybean; [6]): 0
- Plant response rating, Soybean (soybean; [7]): 0
- Plant response rating, Soybean (soybean; [8]): 15
- Plant response rating, Soybean (soybean; [9]): 0
- Soybean plant response rating (soybean; [11]): 0
- Plant response rating, Soybean (soybean; [16]): 0
- Plant response rating (scale of 0 to 100), Soybean (soybean; Preemergence, 250 g ai/ha): 0
- Plant response rating, Ducksalad (ducksalad): 100
- Plant response rating, Barnyardgrass (barnyardgrass [3]): 65
- Plant response rating, Oilseed Rape (oilseed rape; [6]): 35
- Plant response rating, Oilseed Rape (oilseed rape; [7]): 30
- Plant response rating, Oilseed Rape (oilseed rape; [8]): 40
- Plant response rating, Oilseed Rape (oilseed rape; [9]): 5
- Oilseed Rape plant response rating (oilseed rape; [10]): 0
- Oilseed Rape plant response rating (oilseed rape; [11]): 0
- Plant response rating, Oilseed Rape (oilseed rape; [16]): 50
- Plant response rating (scale of 0 to 100), Oilseed Rape (oilseed rape; Preemergence, 250 g ai/ha): 70
- Plant response rating, Corn (corn [4]; 125 g ai/ha, visual rating on 0 to 100 scale (0 no effect, 100 complete control), approx. 10 days): 30
- Plant response rating, Corn (corn [4]; 500 g ai/ha, 0 to 100 scale (0 no effect, 100 complete control)): 80
- Plant response rating, Nutsedge, Yellow (nutsedge, yellow; [6]): 0
- Plant response rating, Nutsedge, Yellow (nutsedge, yellow; [7]): 5
- Plant response rating, Nutsedge, Yellow (nutsedge, yellow; [8]): 30
- Plant response rating, Nutsedge, Yellow (nutsedge, yellow; [9]): 0
- Nutsedge, Yellow plant response rating (nutsedge, yellow; [10]): 0
- Nutsedge, Yellow plant response rating (nutsedge, yellow; [11]): 0
- Plant response rating, Nutsedge, Yellow (nutsedge, yellow; [16]): 0
- Plant response rating (scale of 0 to 100), Nutsedge, Yellow (nutsedge, yellow; Preemergence, 250 g ai/ha): 0
- Plant response rating, Foxtail, Giant (foxtail, giant; [6]): 10
- Plant response rating, Foxtail, Giant (foxtail, giant; [7]): 0
- Plant response rating, Foxtail, Giant (foxtail, giant; [8]): 40
- Plant response rating, Foxtail, Giant (foxtail, giant; [9]): 80
- Foxtail, Giant plant response rating (foxtail, giant; [10]): 90
- Foxtail, Giant plant response rating (foxtail, giant; [11]): 90
- Plant response rating, Foxtail, Giant (foxtail, giant; [16]): 90
- Plant response rating (scale of 0 to 100), Foxtail, Giant (foxtail, giant; Preemergence, 250 g ai/ha): 95
- Plant response rating, Corn (corn [5]; [6]): 0
- Plant response rating, Corn (corn [5]; [7]): 0
- Plant response rating, Corn (corn [5]; [8]): 0
- Plant response rating, Corn (corn [5]; [9]): 20
- Corn plant response rating (corn [5]; [10]): 0
- Corn plant response rating (corn [5]; [11]): 0
- Plant response rating, Corn (corn [5]; [16]): 65
- Plant response rating (scale of 0 to 100), Corn (corn [5]; Preemergence, 250 g ai/ha): 70
